Assay results from PubChem BioAssay (NCI).
Values joined by “and” are separate entries in the source; they are usually repeats but may differ in a detail not shown here. Equal values may be shown once.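 96-well plates; 48 h exposure; 5 concentrations. Endpoints by linear interpolation between flanking doses. Not reached: highest tested concentration assigned. Abbreviation: GI50, concentration required for 50% inhibition of growth. TGI denotes the concentration required for complete inhibition of growth.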

What was measured:
Assay in all cases: inhibition of tumour cell growth, NCI panel, 48 h
[1] = test system: HCC-2998 colon
[2] = test system: SN12C renal
[3] = test system: EKVX NSCLC
[4] = test system: HOP-92 NSCLC
[5] = test system: SNB-19 CNS
[6] = test system: A498 renal
[7] = test system: MALME-3M melanoma
[8] = test system: SNB-75 CNS
[9] = test system: CAKI-1 renal
[10] = test system: U251 CNS

SMILES	GI50 [1] [µM]	TGI [1]	GI50 [2]	TGI [2]	GI50 [3]	TGI [3]	GI50 [4]	TGI [4]	GI50 [5]	TGI [5]	GI50 [6]	TGI [6]	GI50 [7]	TGI [7]	TGI [8]	GI50 [9]	TGI [9]	GI50 [10]	TGI [10]	GI50 [8]
CCn1c(CO)nn(-c2cc(O[C@@H](C)C(F)(F)F)c(C(=O)Nc3c(F)cccc3Cl)cc2F)c1=O	< 0.01	> 100 µM	0.081 µM	> 100 µM	8.47 µM	> 100 µM	17.7 µM	> 100 µM	< 0.01 µM	> 100 µM	3.84 µM	> 100 µM	> 32.2 µM	> 100 µM	> 100 µM	< 0.0148 µM	> 100 µM	< 0.01 µM	> 100 µM	–
CC1=NN(C(=O)CC(=O)N(C(=O)c2ccccc2Cl)c2ccc(C)cc2)C(=O)C1N=Nc1ccc([N+](=O)[O-])cc1 (stereo not drawn)	–	> 100 µM	–	> 100 µM	–	> 100 µM	–	> 78.5 µM	–	> 100 µM	–	> 100 µM	–	> 100 µM	> 72 µM	–	> 100 µM	–	48.9 µM	–
O=C(/C=C/c1cc(CN2CCOCC2)c(O)c2ncccc12)c1cc(CN2CCOCC2)c(O)c2ncccc12	0.0506	> 100 µM	0.0673 µM	> 100 µM	0.077 µM	> 100 µM	0.0292 µM	0.525 µM	0.0482 µM	> 100 µM	0.246 µM	18 µM	0.145 µM	> 100 µM	42.6 µM	0.0842 µM	> 100 µM	< 0.0172 µM	4.95 µM	0.0595 µM
CC(C)S(=O)(=O)c1ccccc1Nc1nc(Nc2cccc(NC(=O)CN)c2)ncc1Cl	0.399	4.12 µM	0.21 µM	6.66 µM	1.5 µM	10.1 µM	0.102 µM	1.55 µM	0.251 µM	10.1 µM	< 0.0242 µM	0.493 µM	1.22 µM	3.12 µM	0.41 µM	0.2 µM	7.25 µM	0.179 µM	2.86 µM	0.0346 µM
CC(=O)O[C@H](C[C@H](C(C)C)N(C)C(=O)[C@@H](NC(=O)[C@H]1CCCCN1C)C(C)C)c1nc(C(=O)N[C@@H](Cc2ccccc2)C[C@H](C)C(=O)O)c(CCOCc2ccccc2)s1	< 0.001	0.616 µM	< 0.001 µM	> 10 µM	< 0.001 µM	> 10 µM	< 0.001 µM	> 10 µM	< 0.001 µM	> 10 µM	< 0.001 µM	0.00316 µM	< 0.001 µM	> 10 µM	5.67 µM	< 0.001 µM	> 10 µM	< 0.001 µM	–	< 0.001 µM
C[C@]12CC[C@H](O)C[C@H]1CC[C@@H]1[C@@H]2CC[C@]2(C)[C@@H](C3=CC(=O)OC3)CC[C@]12O	–	0.675 µM	–	0.327 µM	–	0.433 µM	–	1.1 µM	–	2.2 µM	0.0591 µM	0.378 µM	–	0.523 µM	2.12 µM	–	0.18 µM	–	1.52 µM	–
CCCCC1(CN2CCOCC2)S/C(=N/c2nc(CC(=O)OCC)cs2)NC1=O (stereo not drawn)	35.9	> 100 µM	35.8 µM	> 100 µM	38.9 µM	> 100 µM	32.9 µM	> 100 µM	38.4 µM	> 100 µM	41.5 µM	> 100 µM	25.4 µM	> 100 µM	> 100 µM	29.9 µM	> 100 µM	33.9 µM	> 100 µM	29.4 µM
COc1ccc(C2c3cc(OC)c(OC)cc3C(Cc3ccc([N+](=O)[O-])cc3)C2c2ccc([N+](=O)[O-])cc2)cc1OC (stereo not drawn)	–	> 100 µM	–	> 100 µM	–	> 100 µM	–	> 100 µM	–	> 100 µM	–	> 100 µM	–	> 100 µM	> 100 µM	–	> 100 µM	–	> 100 µM	–
COc1ccc(C(=O)COc2cccc(/C=C3\Oc4ccc5ccccc5c4C3=O)c2)cc1	15.3	28.8 µM	1.76 µM	3.85 µM	14.4 µM	42.8 µM	0.0932 µM	25.6 µM	15.5 µM	29.4 µM	20.6 µM	37.1 µM	1.74 µM	5.51 µM	29 µM	10.7 µM	23.5 µM	6.42 µM	19.6 µM	12.3 µM
COc1cc2c(c(OC)n1)[C@]1(O)[C@H](O)[C@H](CN(C)C)[C@@H](c3ccccc3)[C@]1(c1ccc(C#N)cc1)O2	< 0.01	0.564 µM and 0.81 µM	0.0156 µM and < 0.0132 µM	1.94 µM and 1.61 µM	0.0305 µM and 0.0237 µM	2.81 µM and 2.54 µM	0.0521 µM and 0.0346 µM	4.3 µM and 0.991 µM	0.0111 µM and 0.0104 µM	3.8 µM and 4.21 µM	0.0192 µM and 0.0201 µM	0.0518 µM and 0.0773 µM	0.0194 µM and 0.019 µM	0.7 µM and 0.841 µM	4.58 µM and 2.02 µM	0.0276 µM and 0.0178 µM	1.68 µM and 4.38 µM	0.02 µM and < 0.0111 µM	2.39 µM and 7.95 µM	0.1 µM and 0.047 µM
COc1ccc(OC)c2c(/C=C/c3ccc(N(C)C)cc3)ccnc12	–	> 10 µM	–	> 10 µM	–	> 10 µM	–	> 10 µM	–	> 10 µM	–	> 10 µM	–	> 10 µM	> 10 µM	–	> 10 µM	–	> 10 µM	–
Oc1cn(-c2ccc(Cl)cc2)nc1-c1n[nH]c(=S)n1C1CCCCC1	2.33	14.3 µM	2.43 µM	> 100 µM	15.5 µM	> 100 µM	38.7 µM	> 100 µM	0.416 µM	> 44.8 µM	0.365 µM	9.44 µM	–	> 100 µM	0.702 µM	0.389 µM	> 100 µM	0.467 µM	> 100 µM	0.165 µM
COc1cccc(-n2c3nc(=O)n(C)c(=O)c-3nc3ccccc32)c1	–	38.9 µM	–	30.8 µM	–	82.1 µM	–	72.5 µM	–	74.3 µM	–	> 100 µM	–	29.8 µM	76.2 µM	–	> 100 µM	–	38.2 µM	–
